# In ChEMBL document CHEMBL3808375, “Design of Novel Aminoglycoside Derivatives with Enhanced Suppression of Diseases-Causing Nonsense Mutations” (ACS Med Chem Lett, 2016):
# Experiments:
# [1] = Binding affinity to decoding site rRNA of ribosome in TNT rabbit reticulocyte lysate using luciferase T7 control DNA plasmid assessed as inhibition of translation incubated for 60 mins by luciferase reporter gene based coupled transcription/translation assay; design: species or system Oryctolagus cuniculus
# Bacillus spizizenii = experiment: microbe, parasite or virus in culture; assay type: functional; conditions: ATCC 6633
# Description: Antibacterial activity against Bacillus subtilis ATCC 6633 by double microdilution assay
# Escherichia coli = experiment: microbe, parasite or virus in culture; assay type: functional; conditions: R477/100
# Description: Antibacterial activity against Escherichia coli R477/100 by double microdilution assay
# [2] = Binding affinity to decoding site rRNA of ribosome in Escherichia coli using Escherichia coli S30 circular DNA assessed as inhibition of translation incubated for 60 mins by luciferase reporter gene based coupled transcription/translation assay
# [3] = Binding affinity to decoding site rRNA of ribosome in Escherichia coli using Escherichia coli S30 circular DNA assessed as inhibition of translation incubated for 20 mins by luciferase reporter gene based coupled transcription/translation assay
IC50 [1] [µM],MIC (Bacillus spizizenii) [µM],MIC (Escherichia coli) [µM],IC50 [2] [µM],Compound,IC50 [3] [µM]
7.5,34,> 273,0.7,NC[C@H]1O[C@@H](O[C@H]2[C@H](O)[C@@H](N)C[C@@H](N)[C@@H]2O[C@H]2O[C@H]([C@H](O)CO)[C@@H](O)[C@H](O)[C@H]2N)[C@H](O)[C@@H]1O,
516,> 375,> 375,91.9,N[C@H]1[C@@H](O[C@@H]2[C@@H](O)[C@H](O)[C@@H](N)C[C@H]2N)O[C@H]([C@@H](O)CO)[C@@H](O)[C@@H]1O,
120,311,> 311,11,N[C@H]1[C@@H](O[C@@H]2[C@@H](O)[C@H](O)[C@@H](N)C[C@H]2N)O[C@H]([C@H](O)CO)[C@@H](O)[C@@H]1O,
347,,,6,C[C@@H](O)[C@H]1O[C@H](O[C@@H]2[C@@H](O)[C@H](O)[C@@H](N)C[C@H]2N)[C@H](N)[C@@H](O)[C@@H]1O,
1.2,64,> 257,1.2,C[C@H](N)[C@H]1O[C@@H](O[C@H]2[C@H](O)[C@@H](N)C[C@@H](N)[C@@H]2O[C@H]2O[C@H]([C@H](O)CO)[C@@H](O)[C@H](O)[C@H]2N)[C@H](O)[C@@H]1O,
1.5,156,1270,1.1,C[C@H](N)[C@H]1O[C@@H](O[C@H]2[C@H](O)[C@@H](N)C[C@@H](N)[C@@H]2O[C@H]2O[C@H]([C@@H](C)O)[C@@H](O)[C@H](O)[C@H]2N)[C@H](O)[C@@H]1O,
,,,,N[C@H]1[C@@H](O[C@@H]2[C@@H](O)[C@H](O)[C@@H](N)C[C@H]2N)O[C@H](C(O)CO)[C@@H](O)[C@@H]1O (mixture of isomers),24
,,,,N[C@H]1[C@@H](O[C@H]2[C@H](O)[C@@H](O)[C@H](N)C[C@@H]2N)O[C@H](CO)[C@@H](O)[C@@H]1O [PAROMAMINE],3.9

Compound,IC50 [1] [µM],MIC (Bacillus spizizenii) [µM],MIC (Escherichia coli) [µM],IC50 [2] [µM],IC50 [3] [µM]
CN[C@@H]1[C@@H](O)[C@@H](O[C@@H]2[C@@H](O)[C@H](O[C@H]3O[C@H](CN)CC[C@H]3N)[C@@H](N)C[C@H]2N)OC[C@]1(C)O,62,< 0.75,,,
CN[C@@H]1[C@@H](O)[C@@H](O[C@H]2[C@H](O)[C@@H](O[C@H]3O[C@H](C(C)O)[C@@H](O)[C@H](O)[C@H]3N)[C@H](N)C[C@@H]2N)OC[C@]1(C)O (some centres undefined),,< 1.25,9,0.01,
